Measurements from US20090099195A1 (ASTRAZENECA AB, priority 2007, published 2009).

Each compound was assayed against T1, hP2X3 (human Purinergic P2X receptors subtype 3), clone B (Homo sapiens, UniProt P56373) (assay: hP2X3 FLIPR calcium (Fluo-4) antagonist assay, clone B). Conditions: Human P2X3 FLIPR Clone B IC50 (nM), RLE cells expressing hP2X3 clone B (NM_002559); agonist 500 nM α,β-methylene-ATP.
T1 sequence (P56373 1-397): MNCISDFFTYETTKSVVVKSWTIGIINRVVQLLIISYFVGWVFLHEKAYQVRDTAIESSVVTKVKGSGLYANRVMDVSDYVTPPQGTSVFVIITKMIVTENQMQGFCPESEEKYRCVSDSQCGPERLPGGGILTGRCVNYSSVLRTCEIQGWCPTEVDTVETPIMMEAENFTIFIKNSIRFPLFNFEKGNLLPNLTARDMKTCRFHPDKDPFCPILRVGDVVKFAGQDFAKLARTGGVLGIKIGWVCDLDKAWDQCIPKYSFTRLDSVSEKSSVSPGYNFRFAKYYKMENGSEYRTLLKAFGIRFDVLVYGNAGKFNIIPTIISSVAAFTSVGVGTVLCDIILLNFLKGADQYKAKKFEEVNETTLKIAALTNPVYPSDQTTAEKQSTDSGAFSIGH

IC50	Structure (SMILES)
230 nM	Cc1ccc(C(Nc2nc(N3CCOCC3)nc3c2CN(C(C)C)C3=O)c2ccccc2)cc1 (stereo not shown) [Example 76, 6-isopropyl-2-morpholin-4-yl-[(phenyl-p-tolyl-methyl)-amino]-5,6-dihydro-pyrrolo[3,4-d]pyrimidin-7-one]
260 nM	CC(C)N1Cc2c(NC(c3ccccc3)c3ccc(Cl)cc3)nc(N3CCOCC3)nc2C1=O (stereo not shown) [Example 77, 4-{[(4-Chloro-phenyl)-phenyl-methyl]-amino}-6-isopropyl-2-morpholin-4-yl-5,6-dihydro-pyrrolo[3,4-d]pyrimidin-7-one]
400 nM	CCN1CCN(c2nc(NC(c3ccccc3)c3ccccc3)c3c(n2)C(=O)N(C(C)C)C3)CC1 [Example 78, 4-(Benzhydryl-amino)-2-(4-ethyl-piperazin-1-yl)-6-isopropyl-5,6-dihydro-pyrrolo[3,4-d]pyrimidin-7-one]
130 nM	CC(C)N1Cc2c(NC(c3ccccc3)c3ccccc3)nc(N3CCN(C(=O)C4CC4)CC3)nc2C1=O [Example 79, 4-(Benzhydryl-amino)-2-(4-cyclopropanecarbonyl-piperazin-1-yl)-6-isopropyl-5,6-dihydro-pyrrolo[3,4-d]pyrimidin-7-one]
190 nM	CC(C)C(=O)N1CCN(c2nc(NC(c3ccccc3)c3ccccc3)c3c(n2)C(=O)N(C(C)C)C3)CC1 [Example 80, 4-(Benzhydryl-amino)-2-(4-isobutyryl-piperazin-1-yl)-6-isopropyl-5,6-dihydro-pyrrolo[3,4-d]pyrimidin-7-one]
830 nM	CC(C)N1Cc2c(NC(c3ccccc3)c3ccccc3)nc(NCc3ccccc3)nc2C1=O [Example 84, 4-(Benzhydryl-amino)-2-benzylamino-6-isopropyl-5,6-dihydro-pyrrolo[3,4-d]pyrimidin-7-one]
280 nM	CC1CN(c2nc(NC(c3ccccc3)c3ccccc3)c3c(n2)C(=O)N(C(C)C)C3)CC(C)O1 (stereo not shown) [Example 86, 4-(Benzhydryl-amino)-2-(2,6-dimethyl-morpholin-4-yl)-6-isopropyl-5,6-dihydro-pyrrolo[3,4-d]pyrimidin-7-one]
240 nM	CCC(=O)N1CCN(c2nc(NC(c3ccccc3)c3ccccc3)c3c(n2)C(=O)N(C(C)C)C3)CC1 [Example 87, 4-(Benzhydryl-amino)-6-isopropyl-2-(4-propionyl-piperazin-1-yl)-5,6-dihydro-pyrrolo[3,4-d]pyrimidin-7-one]
1800 nM	CC(=O)N1CCN(c2nc(NC(Cc3ccccc3)c3ccccc3)c3c(n2)C(=O)N(C(C)C)C3)CC1 (stereo not shown) [Example 88, 2-(4-Acetyl-piperazin-1-yl)-4-(1,2-diphenyl-ethylamino)-6-isopropyl-5,6-dihydro-pyrrolo[3,4-d]pyrimidin-7-one]
6200 nM	CCN(CC)c1nc(NC(c2ccccc2)c2ccccc2)c2c(n1)C(=O)N(C(C)C)C2 [Example 89, 4-(Benzhydryl-amino)-2-diethylamino-6-isopropyl-5,6-dihydro-pyrrolo[3,4-d]pyrimidin-7-one]
100 nM	CC(=O)N1CCN(c2nc(NCC(c3ccccc3)c3ccccc3)c3c(n2)C(=O)N(C(C)C)C3)CC1 [Example 91, 2-(4-acetylpiperazin-1-yl)-4-[(2,2-diphenylethyl)amino]-6-isopropyl-5,6-dihydro-7H-pyrrolo[3,4-d]pyrimidin-7-one]
290 nM	CC(=O)NCCNc1nc(NC(c2ccccc2)c2ccccc2)c2c(n1)C(=O)N(C(C)C)C2 [Example 93, N-{2-[4-(Benzhydryl-amino)-6-isopropyl-7-oxo-6,7-dihydro-5H-pyrrolo[3,4-d]pyrimidin-2-ylamino]-ethyl}-acetamide]
250 nM	CC(C)N1Cc2c(NC(c3ccccc3)c3ccccc3)nc(NCc3cccnc3)nc2C1=O [Example 94, 4-(Benzhydryl-amino)-6-isopropyl-2-[(pyridin-3-ylmethyl)-amino]-5,6-dihydro-pyrrolo[3,4-d]pyrimidin-7-one]
430 nM	CC(=O)N1CCN(c2nc3c(c(N(Cc4ccccc4)Cc4ccccc4)n2)CN(C(C)C)C3=O)CC1 [Example 95, 2-(4-Acetyl-piperazin-1-yl)-4-dibenzylamino-6-isopropyl-5,6-dihydro-pyrrolo[3,4-d]-pyrimidin-7-one]
230 nM	CC(C)N1Cc2c(NC(c3ccccc3)c3ccccc3)nc(NCCN(C)C)nc2C1=O [Example 97, 4-(Benzhydryl-amino)-2-(2-dimethylamino-ethylamino)-6-isopropyl-5,6-dihydro-pyrrolo[3,4-d]pyrimidin-7-one]
210 nM	COCCNc1nc(NC(c2ccccc2)c2ccc(C)cc2)c2c(n1)C(=O)N(C(C)C)C2 (stereo not shown) [Example 98, 6-isopropyl-2-(2-methoxy-ethylamino)-4-[(phenyl-p-tolyl-methyl)-amino]-5,6-dihydro-pyrrolo[3,4-d]-pyrimidin-7-one]

IC50	Structure (SMILES)
1100 nM	CC(C)N1Cc2c(NC(c3ccccc3)c3ccccc3)nc(NCCO)nc2C1=O [Example 100]
150 nM	CCN1CCN(c2nc(NC(c3ccccc3)c3ccc(C)cc3)c3c(n2)C(=O)N(C(C)C)C3)CC1 (stereo not shown) [Example 101, 2-(4-Ethyl-piperazin-1-yl)-6-isopropyl-4-[(phenyl-p-tolyl-methyl)-amino]-5,6-dihydro-pyrrolo[3,4-d]-pyrimidin-7-one]
200 nM	Cc1ccc(C(Nc2nc(N3CCN(C(C)C)CC3)nc3c2CN(C(C)C)C3=O)c2ccccc2)cc1 (stereo not shown) [Example 102, 2-(4-isopropyl-piperazin-1-yl)-6-isopropyl-4-[(phenyl-p-tolyl-methyl)-amino]-5,6-dihydro-pyrrolo[3,4-d]-pyrimidin-7-one]
310 nM	COc1ccc(C(Nc2nc(N3CCN(C(C)=O)CC3)nc3c2CN(C(C)C)C3=O)c2ccccc2)cc1 (stereo not shown) [Example 103, 2-(4-Acetyl-piperazin-1-yl)-6-isopropyl-4-{[(4-methoxy-phenyl)-phenyl-methyl]-amino}-5,6-dihydro-pyrrolo[3,4-d]pyrimidin-7-one]
9300 nM	CC(=O)N1CCN(c2nc(Nc3cccc(C(C)C)c3)c3c(n2)C(=O)N(C(C)C)C3)CC1 [Example 105, 2-(4-Acetyl-piperazin-1-yl)-6-isopropyl-4-(3-isopropyl-phenylamino)-5,6-dihydro-pyrrolo[3,4-d]-pyrimidin-7-one]
5300 nM	CC(C)N1Cc2c(nc(NCCN(C)C)nc2N(Cc2ccccc2)Cc2ccccc2)C1=O [Example 106, 4-Dibenzylamino-2-(2-dimethylamino-ethylamino)-6-isopropyl-5,6-dihydro-pyrrolo[3,4-d]-pyrimidin-7-one]
2300 nM	CCN1CCN(c2nc(NCC(c3ccccc3)c3ccccc3)c3c(n2)C(=O)N(C(C)C)C3)CC1 [Example 107, 4-(2,2-Diphenyl-ethylamino)-2-(4-ethyl-piperazin-1-yl)-6-isopropyl-5,6-dihydro-pyrrolo[3,4-d]pyrimidin-7-one]
4400 nM	CC(C)N1Cc2c(NCC(c3ccccc3)c3ccccc3)nc(NCCCN(C)C)nc2C1=O [Example 108, 2-(3-Dimethylamino-propylamino)-4-(2,2-diphenyl-ethylamino)-6-isopropyl-5,6-dihydro-pyrrolo[3,4-d]pyrimidin-7-one]
7200 nM	CNCCNc1nc(NCC(c2ccccc2)c2ccccc2)c2c(n1)C(=O)N(C(C)C)C2 [Example 109, 4-(2,2-Diphenyl-ethylamino)-6-isopropyl-2-(2-methylamino-ethylamino)-5,6-dihydro-pyrrolo[3,4-d]pyrimidin-7-one]
3300 nM	CCCN1Cc2c(NC(c3ccccc3)c3ccccc3)nc(N3CCOCC3)nc2C1=O [Example 110, 4-[(diphenylmethyl)amino]-2-morpholin-4-yl-6-propyl-5,6-dihydro-7H-pyrrolo[3,4-d]pyrimidin-7-one]
9000 nM	CC(=O)N1CCN(c2nc3c(c(N(C)Cc4ccc(Cl)cc4)n2)CN(C(C)C)C3=O)CC1 [Example 111, 2-(4-acetylpiperazin-1-yl)-4-[(4-chlorobenzyl)(methyl)amino]-6-isopropyl-5,6-dihydro-7H-pyrrolo[3,4-d]pyrimidin-7-one]
460 nM	CC(=O)N1CCN(c2nc(NCC3(c4ccc(Cl)cc4)CCCC3)c3c(n2)C(=O)N(C(C)C)C3)CC1 [Example 113, 2-(4-acetylpiperazin-1-yl)-4-({[1-(4-chlorophenyl)cyclopentyl]methyl}amino)-6-isopropyl-5,6-dihydro-7H-pyrrolo[3,4-d]pyrimidin-7-one]
3700 nM	CC(=O)N1CCN(c2nc3c(c(N4CCC[C@H]4Cc4ccccc4)n2)CN(C(C)C)C3=O)CC1 [Example 117, 2-(4-acetylpiperazin-1-yl)-4-[(2S)-2-benzylpyrrolidin-1-yl]-6-isopropyl-5,6-dihydro-7H-pyrrolo[3,4-d]pyrimidin-7-one]
1100 nM	CCN1Cc2c(NC(C)(C)Cc3ccc(F)cc3)nc(N3CCN(C(C)=O)CC3)nc2C1=O [Example 118, 2-(4-acetylpiperazin-1-yl)-6-ethyl-4-{[2-(4-fluorophenyl)-1,1-dimethylethyl]amino}-5,6-dihydro-7H-pyrrolo[3,4-d]pyrimidin-7-one]
3200 nM	CCN1CCN(c2nc(NC(c3ccccc3)c3ccccn3)c3c(n2)C(=O)N(C(C)C)C3)CC1 (stereo not shown) [Example 119, 2-(4-ethylpiperazin-1-yl)-6-isopropyl-4-{[phenyl(pyridin-2-yl)methyl]amino}-5,6-dihydro-7H-pyrrolo[3,4-d]pyrimidin-7-one]
